Test [1] deals with T1, Alpha-1A adrenergic receptor (Rattus norvegicus, UniProt P43140).
T1 sequence (P43140 whole entry): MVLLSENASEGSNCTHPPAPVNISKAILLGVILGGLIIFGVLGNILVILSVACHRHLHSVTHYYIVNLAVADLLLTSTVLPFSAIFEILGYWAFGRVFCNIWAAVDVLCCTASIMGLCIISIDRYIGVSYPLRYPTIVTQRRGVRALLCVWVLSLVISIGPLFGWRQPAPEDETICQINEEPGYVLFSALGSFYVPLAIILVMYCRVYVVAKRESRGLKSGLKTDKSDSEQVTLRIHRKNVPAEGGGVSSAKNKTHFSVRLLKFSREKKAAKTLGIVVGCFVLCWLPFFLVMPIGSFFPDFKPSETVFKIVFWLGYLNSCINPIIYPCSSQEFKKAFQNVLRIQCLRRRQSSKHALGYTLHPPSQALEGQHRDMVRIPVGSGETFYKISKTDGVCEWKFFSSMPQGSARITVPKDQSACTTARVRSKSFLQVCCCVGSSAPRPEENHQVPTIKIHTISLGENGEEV
The test can be described thus: DRUGMATRIX: Alpha-1A adrenergic receptor radioligand binding (ligand: prazosin). The format is cell membranes, Wistar, Submaxillary gland, Membrane. To be noted: Not Active = under 50% inhibition at 10 µM.

Test [2] deals with Substance-P receptor (Homo sapiens, UniProt P25103). The test is classed as cell membranes, Membrane. To be noted: cho.
Sequence of Substance-P receptor (P25103 whole entry): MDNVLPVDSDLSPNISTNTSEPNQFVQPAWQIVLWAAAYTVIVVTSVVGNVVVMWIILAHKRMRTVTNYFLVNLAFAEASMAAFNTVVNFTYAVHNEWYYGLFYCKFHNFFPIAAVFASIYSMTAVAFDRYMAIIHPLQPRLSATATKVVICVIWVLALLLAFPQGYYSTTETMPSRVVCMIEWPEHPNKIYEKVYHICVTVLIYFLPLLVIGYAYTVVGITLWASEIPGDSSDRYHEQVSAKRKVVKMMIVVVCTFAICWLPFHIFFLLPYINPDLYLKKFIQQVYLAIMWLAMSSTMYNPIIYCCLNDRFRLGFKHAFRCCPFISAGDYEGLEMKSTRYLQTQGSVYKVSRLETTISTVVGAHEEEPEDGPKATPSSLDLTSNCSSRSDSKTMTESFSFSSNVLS
In test [3] the target is Carbonic anhydrase 2 (Homo sapiens, UniProt P00918). The test can be described thus: DRUGMATRIX: Carbonic Anhydrase II enzyme inhibition (substrate: 4-Nitrophenyl acetate (4-NPA)). The format is tissue-based, Erythrocyte. To be noted: Not Active = under 50% inhibition at 10 µM.
The nature of test [4]: DRUGMATRIX: Glutamate, NMDA, Agonism radioligand binding (ligand: [3H] CGP-39653). The test is classed as cell membranes, Rattus norvegicus, Wistar, Cerebral cortex, Membrane. To be noted: Not Active = under 50% inhibition at 10 µM.
The target in test [5] is T2, Amine oxidase [flavin-containing] A (Homo sapiens, UniProt P21397).
T2 sequence (P21397 whole entry): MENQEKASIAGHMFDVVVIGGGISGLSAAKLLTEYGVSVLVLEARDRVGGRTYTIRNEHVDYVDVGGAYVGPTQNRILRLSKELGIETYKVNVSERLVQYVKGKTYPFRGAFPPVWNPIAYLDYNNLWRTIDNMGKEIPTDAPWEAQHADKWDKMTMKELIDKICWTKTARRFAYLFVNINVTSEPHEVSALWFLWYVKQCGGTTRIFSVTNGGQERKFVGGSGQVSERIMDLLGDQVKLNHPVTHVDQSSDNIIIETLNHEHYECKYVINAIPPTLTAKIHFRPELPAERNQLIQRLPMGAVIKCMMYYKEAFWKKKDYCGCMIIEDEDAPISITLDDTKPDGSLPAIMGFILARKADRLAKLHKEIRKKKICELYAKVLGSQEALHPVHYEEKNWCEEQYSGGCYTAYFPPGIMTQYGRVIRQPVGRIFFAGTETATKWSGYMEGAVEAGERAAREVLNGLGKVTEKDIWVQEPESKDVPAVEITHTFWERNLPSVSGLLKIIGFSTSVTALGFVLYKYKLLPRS
Kind of test: DRUGMATRIX: Monoamine Oxidase MAO-A enzyme inhibition (substrate: Kynuramine). To be noted: bti-tn-5b1-4; Not Active = under 50% inhibition at 10 µM. Further details: species or system BTI-TN-5B1-4.

In test [6] the target is T3, Muscarinic acetylcholine receptor M5 (Homo sapiens, UniProt P08912). Further: in other assays of this panel Not Active means under 50% inhibition at 10 µM.
T3 sequence (P08912 whole entry): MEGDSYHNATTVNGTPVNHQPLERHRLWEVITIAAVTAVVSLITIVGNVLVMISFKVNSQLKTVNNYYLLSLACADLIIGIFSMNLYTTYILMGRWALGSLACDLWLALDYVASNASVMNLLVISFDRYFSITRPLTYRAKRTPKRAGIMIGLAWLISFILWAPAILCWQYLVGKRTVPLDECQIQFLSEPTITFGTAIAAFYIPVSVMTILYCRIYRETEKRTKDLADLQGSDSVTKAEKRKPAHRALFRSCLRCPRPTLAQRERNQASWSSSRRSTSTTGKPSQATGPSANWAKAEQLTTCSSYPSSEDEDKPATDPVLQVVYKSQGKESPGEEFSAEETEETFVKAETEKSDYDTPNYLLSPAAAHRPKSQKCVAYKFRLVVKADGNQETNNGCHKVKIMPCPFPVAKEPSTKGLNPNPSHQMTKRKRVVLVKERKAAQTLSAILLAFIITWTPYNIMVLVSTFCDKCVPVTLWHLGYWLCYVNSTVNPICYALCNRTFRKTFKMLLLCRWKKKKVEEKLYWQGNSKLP
The test is classed as cell membranes, CHO-K1, Membrane. To be noted: cho-k1.

Test [7] deals with T4, Cathepsin G (Homo sapiens, UniProt P08311).
T4 sequence (P08311 whole entry): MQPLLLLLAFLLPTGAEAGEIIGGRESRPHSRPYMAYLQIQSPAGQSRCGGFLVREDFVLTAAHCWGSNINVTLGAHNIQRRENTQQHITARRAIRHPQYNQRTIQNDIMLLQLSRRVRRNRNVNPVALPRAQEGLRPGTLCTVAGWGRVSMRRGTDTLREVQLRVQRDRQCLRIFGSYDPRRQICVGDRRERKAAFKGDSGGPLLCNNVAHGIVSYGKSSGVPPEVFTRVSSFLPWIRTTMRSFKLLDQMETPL
The test is classed as tissue-based. To be noted: neutrophil.

Test [8] deals with T5, Neutrophil elastase (Homo sapiens, UniProt P08246).
T5 sequence (P08246 whole entry): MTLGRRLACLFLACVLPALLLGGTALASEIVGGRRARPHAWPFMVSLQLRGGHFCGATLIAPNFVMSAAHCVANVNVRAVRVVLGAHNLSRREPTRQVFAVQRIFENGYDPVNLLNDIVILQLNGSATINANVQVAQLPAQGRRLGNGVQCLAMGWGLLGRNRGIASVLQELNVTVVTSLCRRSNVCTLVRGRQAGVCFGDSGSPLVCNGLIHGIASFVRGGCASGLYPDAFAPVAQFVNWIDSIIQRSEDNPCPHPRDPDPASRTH
The test is classed as tissue-based.

Test [9] addresses Adenosine receptor A2a (Homo sapiens, UniProt P29274). Kind of test: DRUGMATRIX: Adenosine A2A radioligand binding (ligand: […]). The format is cell membranes, HEK293, Membrane. To be noted: hek293; Not Active = under 50% inhibition at 10 µM.

Molecules are shown by their SMILES.

Sequence of Adenosine receptor A2a (P29274 whole entry): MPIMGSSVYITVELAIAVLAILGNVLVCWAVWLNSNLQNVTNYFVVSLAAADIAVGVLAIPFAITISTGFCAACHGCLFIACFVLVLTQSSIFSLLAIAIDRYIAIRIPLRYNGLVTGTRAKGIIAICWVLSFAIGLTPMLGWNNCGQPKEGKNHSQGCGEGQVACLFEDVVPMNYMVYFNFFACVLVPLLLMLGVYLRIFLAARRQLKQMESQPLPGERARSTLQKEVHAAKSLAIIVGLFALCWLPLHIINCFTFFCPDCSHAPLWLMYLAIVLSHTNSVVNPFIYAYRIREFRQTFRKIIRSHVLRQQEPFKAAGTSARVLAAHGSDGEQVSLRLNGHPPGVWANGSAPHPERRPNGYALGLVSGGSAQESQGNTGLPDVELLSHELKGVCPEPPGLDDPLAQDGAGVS

On to `Cc1cccc(Nc2ccncc2S(=O)(=O)NC(=O)NC(C)C)c1` [TORSEMIDE], for which the IC50 entry in test [1], in test [2], in [3] (erythrocyte), in test [4], in test [5] and in test [6] was “Not Active” in each case. For the same compound, the IC50 entry in [7], in test [8] and in test [9] was “Not Active” in each case. The Ki entry in [4] is on record as “Not Active”.
On to `CC(C)C[C@H](NC(=O)[C@@H](O)[C@H](N)Cc1ccccc1)C(=O)O` [UBENIMEX], for which the IC50 entry in test [1], in test [2], in test [3] (erythrocyte), in test [4], in [5] and in test [6] was “Not Active” throughout. In addition, the IC50 result in test [7], in test [8] and in test [9] was “Not Active” throughout. Further, the Ki result in test [4] is “Not Active”.
Regarding `CC[C@]1(O)C[C@@H]2CN(CCc3c([nH]c4ccccc34)[C@@](C(=O)OC)(c3cc4c(cc3OC)N(C)[C@H]3[C@@](O)(C(=O)OC)[C@H](OC(C)=O)[C@]5(CC)C=CCN6CC[C@]43[C@@H]65)C2)C1` [VINBLASTINE], the IC50 entry in test [1], in [2], in test [3] (erythrocyte), in [4], in test [5] and in test [6] was “Not Active” throughout. In addition, the IC50 entry in test [7], in test [8] and in test [9] was “Not Active” throughout. The Ki result in test [4] is listed as “Not Active”.
As for `CC(=O)CC(c1ccccc1)c1c(O)c2ccccc2oc1=O` (stereo not given) [WARFARIN], the IC50 result in test [1], in test [2], in test [3] (erythrocyte), in test [4], in test [5] and in test [6] was “Not Active” in each case. Moreover, the IC50 result in [7], in test [8] and in [9] was “Not Active” each time. Besides, the Ki entry in test [4] is reported as “Not Active”.
On to `C[C@@H](N)[C@H]1CC[C@H](C(=O)Nc2ccncc2)CC1` [Y-27632], for which the IC50 result in test [1], in test [2], in test [3] (erythrocyte), in [4], in test [5] and in [6] was “Not Active” each time. The IC50 entry in [7], in test [8] and in test [9] was “Not Active” throughout. Besides, the Ki result in [4] is recorded as “Not Active”.
Turning to `[Cl-].[Cl-].[Zn+2]` [ZINC CHLORIDE], the IC50 (as a rule, the midpoint of a concentration-inhibition curve) in [1] is “Not Active”; in test [2], “Not Active”; in test [3] (read-out: IC50), 1.16 µM; in [4] it was “Not Active”; in [5], “Not Active”; in test [6] it was “Not Active”. The IC50 result in test [7], in test [8] and in test [9] was “Not Active” in each case. In [4], the Ki result is “Not Active”.

(Values after ChEMBL document CHEMBL1909046, “DrugMatrix in vitro pharmacology data”.)
